Source: PubChem BioAssay (NCI)
“And” between values parts separate entries of the source, which are not always exact repeats. Equal entries are not always repeated.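 How tested: cells in 96-well plates exposed to compound for 48 hours at five concentrations. GI50 is the concentration that inhibits growth by half. TGI: concentration producing complete growth inhibition.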

How the values were obtained:
Assay in all cases: growth of human tumour cells (NCI), 48 h
[1] = system: A498 renal
[2] = system: HCC-2998 colon
[3] = system: HCT-116 colon
[4] = system: K-562 leukemia
[5] = system: MDA-MB-231 breast
[6] = system: NCI-H522 lung
[7] = system: RPMI-8226 leukemia
[8] = system: RXF 393 renal
[9] = system: SF-268 CNS
[10] = system: SR leukemia

| SMILES | GI50 [1] | TGI [1] | GI50 [2] | TGI [2] | GI50 [3] | TGI [3] | GI50 [4] | TGI [4] [µM] | GI50 [5] | TGI [5] | GI50 [6] | TGI [6] | GI50 [7] | TGI [7] [µM] | GI50 [8] [µM] | TGI [8] [µM] | GI50 [9] | TGI [9] | GI50 [10] | TGI [10] [µM] |
| --- | --- | --- | --- | --- | --- | --- | --- | --- | --- | --- | --- | --- | --- | --- | --- | --- | --- | --- | --- | --- |
| O=C1C=CC(=O)N1c1ccc2ccccc2c1 | 12.7 µM | 27.3 µM | 17.8 µM | 32.8 µM | 3.93 µM | 12.4 µM | 3.45 µM | > 100 | 16.1 µM | 33 µM | 1.74 µM | 3.42 µM | 2 µM | 4.97 | 3.98 | 12.9 | 14.5 µM | 28.3 µM | 2.6 µM | 7.33 |
| C=CC(=O)N1CCN(c2nc(OC[C@@H]3CCCN3C)nc3c(F)c(-c4nc(N)cc(C)c4C(F)(F)F)c(Cl)cc23)[C@@H](C)C1 | 5.34 µM | 19.3 µM | 1.25 µM | 2.57 µM | 2.04 µM | 5.39 µM | 2.47 µM | 8.92 | 1.74 µM | 3.27 µM | 1.21 µM | 2.75 µM | 2.49 µM | 7.06 | 1.07 | 2.5 | 1.59 µM | 3.19 µM | 1.77 µM | 4.54 |
| O=C(Nc1ccc(Br)cc1)c1cc(Br)ccc1O | 0.219 µM and 0.358 µM | 0.841 µM and 1.82 µM | 2.36 µM and 3.46 µM | 7.67 µM and 35.7 µM | 0.354 µM and 1.45 µM | 1.56 µM and 3.56 µM | 0.437 µM and 0.419 µM |  | 0.622 µM and 1.43 µM | 3.22 µM and 7.06 µM | 0.263 µM and 0.854 µM | 4.81 µM and 22.2 µM | 0.483 µM and 0.244 µM | 0.758 | 0.612 | 3.89 | 0.489 µM and 2.05 µM | 26.6 µM and 13.4 µM | 0.291 µM and 0.554 µM | 3.23 |
| O=C1/C(=C/c2ccc([N+](=O)[O-])s2)Oc2ccc(Br)cc21 | 2.31 µM | 6.32 µM | 0.443 µM | 1.68 µM | 0.202 µM | 0.41 µM | 0.135 µM | 0.833 | 0.201 µM | 0.436 µM | 0.177 µM | 0.351 µM | 0.278 µM | 1.14 | 0.274 | 0.813 | 0.256 µM | 0.684 µM | 0.152 µM | 0.914 |
| O=C(/C=C/c1cccc(Cl)c1)c1ccccc1 | 10.2 µM | 21.9 µM | 13 µM | 26.7 µM | 1.44 µM | 2.97 µM | 2.86 µM | 18.9 | 12.2 µM | 28.5 µM |  |  | 3.09 µM | 9.04 | 12.2 | 24.8 | 11.5 µM | 26.2 µM | 2.6 µM | 31.5 |
| O=C1c2c[n+](Cc3ccccc3)ccc2-c2nc3ccccc3c3ccnc1c23 | 0.532 µM | 1.97 µM | 0.609 µM | 1.74 µM | 0.422 µM | 1.86 µM | 0.733 µM | 7.83 | 0.711 µM | 3.21 µM | 0.518 µM | 1.65 µM | 1.06 µM | 6.76 | 0.534 | 1.56 | 0.765 µM | 3.66 µM | 0.066 µM | 3.6 |
| O=C(NCCc1nccs1)c1cnc2c(S)cccc2c1 | 4.59 µM | 16.7 µM | 10.5 µM | 29.1 µM | 1.13 µM | 10.2 µM | 0.98 µM | > 100 | 3.33 µM | 56.4 µM |  |  | 4.15 µM | > 100 | 3.07 | 9.29 | 3.66 µM | 27.1 µM | 0.677 µM | > 100 |
| COc1cc2c(cc1OCCCN1CCN(CCCOc3cc4c(cc3OC)C(=O)N3C[C@H](F)C[C@H]3C=N4)CC1)N=C[C@@H]1C[C@@H](F)CN1C2=O | 0.0947 µM | 0.38 µM | 0.121 µM | 0.357 µM | 0.034 µM | 0.252 µM | 0.0269 µM | 3.66 | 0.116 µM | 0.852 µM | < 0.041 µM | 1.16 µM | 0.0226 µM | 1.04 |  |  | 0.0248 µM | 5.94 µM | < 0.021 µM | 0.521 |
| COc1cccc(C2=C(c3cn(C)c4c(C)cccc34)C(=O)NC2=O)c1 | 5.89 µM | > 21.9 µM | > 25 µM | > 25 µM | > 18 µM | > 25 µM | 12.8 µM | > 25 | 24.5 µM | > 25 µM | > 18.2 µM | > 25 µM | > 25 µM | > 25 | 8.58 | > 25 | > 25 µM | > 25 µM | > 19.6 µM | > 25 |
| CN(COC(=O)C(C)(C)C)c1nc(N(C)COC(=O)C(C)(C)C)nc(N(C)COC(=O)C(C)(C)C)n1 |  | > 100 µM |  | > 100 µM |  | 39.3 µM |  | > 100 |  | 68.9 µM |  | > 100 µM |  |  |  | 41.9 |  | > 100 µM |  | > 100 |
| Nc1ncnc2c1ncn2C1OC(F)(COS(N)(=O)=O)C(O)C1O (centres undefined) | > 100 µM | > 100 µM | > 100 µM | > 100 µM | > 100 µM | > 100 µM | > 100 µM | > 100 | > 100 µM | > 100 µM | > 100 µM | > 100 µM | > 100 µM | > 100 | 97.9 | > 100 | > 100 µM | > 100 µM | > 100 µM | > 100 |
| CC(C)C[C@H](NC(=O)[C@@H](N)Cc1cccc2ccccc12)B(O)O | 0.202 µM |  | 0.021 µM |  | 0.138 µM |  |  |  | 0.798 µM |  |  | 0.741 µM |  | < 0.0272 | 0.136 |  | 0.246 µM and 0.0326 µM |  |  | 0.0653 |
| COc1ccc(/C(=N/O)c2cc(F)c(F)c(OC)c2F)cc1O | 3.79 µM | > 100 µM | 2.01 µM | > 100 µM | 0.393 µM | > 100 µM | 0.271 µM | > 100 | 2.46 µM | > 100 µM | 0.259 µM | 3.3 µM | 0.43 µM | 23.7 |  |  | 0.839 µM | > 100 µM | 0.241 µM | 34.1 |
